Results on 13 compounds are retold here after ChEMBL document CHEMBL4400533, “Histone deacetylase 3 inhibitors in learning and memory processes with special emphasis on benzamides” (Eur J Med Chem, 2019).

Bounds are passed on as bounds.

Data set [1] has as its target T1, Polyamine deacetylase HDAC10 (Homo sapiens, UniProt Q969S8).
T1 sequence (Q969S8 whole entry): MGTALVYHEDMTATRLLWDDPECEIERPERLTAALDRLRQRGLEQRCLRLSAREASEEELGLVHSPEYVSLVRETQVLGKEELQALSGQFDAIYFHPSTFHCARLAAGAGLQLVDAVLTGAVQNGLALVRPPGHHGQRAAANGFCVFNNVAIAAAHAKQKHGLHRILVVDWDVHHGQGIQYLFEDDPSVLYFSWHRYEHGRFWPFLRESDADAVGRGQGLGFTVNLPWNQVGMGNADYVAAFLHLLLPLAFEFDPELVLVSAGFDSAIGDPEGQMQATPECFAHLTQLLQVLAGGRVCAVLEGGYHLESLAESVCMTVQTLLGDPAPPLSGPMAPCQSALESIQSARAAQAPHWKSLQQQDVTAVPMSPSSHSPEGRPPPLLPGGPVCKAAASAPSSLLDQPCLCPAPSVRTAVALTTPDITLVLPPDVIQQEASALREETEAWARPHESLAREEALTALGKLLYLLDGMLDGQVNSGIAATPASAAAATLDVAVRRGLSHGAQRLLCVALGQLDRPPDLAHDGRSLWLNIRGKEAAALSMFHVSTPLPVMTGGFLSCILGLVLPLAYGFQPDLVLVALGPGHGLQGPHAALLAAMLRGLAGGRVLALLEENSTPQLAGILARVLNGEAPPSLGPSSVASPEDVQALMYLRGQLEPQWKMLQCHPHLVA
Nature of the data set: Inhibition of HDAC10 (unknown origin) using (FAM)-labeled acetylated peptide as substrate measured after 17 hrs by fluorescence assay.

In data set [2] the target is T2, Histone deacetylase 1 (Homo sapiens, UniProt Q13547). Nature of the data set: Inhibition of HDAC1 (unknown origin) using (FAM)-labeled acetylated peptide as substrate measured after 17 hrs by fluorescence assay.
T2 sequence (Q13547 whole entry): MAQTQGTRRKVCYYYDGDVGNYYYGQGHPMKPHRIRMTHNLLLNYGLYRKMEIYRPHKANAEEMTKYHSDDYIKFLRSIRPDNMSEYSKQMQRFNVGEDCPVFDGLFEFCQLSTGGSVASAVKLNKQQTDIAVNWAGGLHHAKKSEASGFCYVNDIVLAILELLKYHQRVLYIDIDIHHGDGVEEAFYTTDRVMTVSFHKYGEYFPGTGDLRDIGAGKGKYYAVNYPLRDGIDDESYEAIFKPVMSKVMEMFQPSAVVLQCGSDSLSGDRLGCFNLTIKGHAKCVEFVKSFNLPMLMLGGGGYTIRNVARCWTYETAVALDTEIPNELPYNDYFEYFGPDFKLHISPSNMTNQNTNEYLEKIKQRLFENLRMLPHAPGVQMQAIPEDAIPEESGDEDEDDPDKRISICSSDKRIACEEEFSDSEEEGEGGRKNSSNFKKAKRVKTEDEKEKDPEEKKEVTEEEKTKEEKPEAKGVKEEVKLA
Another data set deals with Histone deacetylase 3 (Homo sapiens, UniProt O15379). Kind of data set: Inhibition of HDAC3 (unknown origin) using (FAM)-labeled acetylated peptide as substrate measured after 17 hrs by fluorescence assay.
Sequence of Histone deacetylase 3 (O15379 whole entry): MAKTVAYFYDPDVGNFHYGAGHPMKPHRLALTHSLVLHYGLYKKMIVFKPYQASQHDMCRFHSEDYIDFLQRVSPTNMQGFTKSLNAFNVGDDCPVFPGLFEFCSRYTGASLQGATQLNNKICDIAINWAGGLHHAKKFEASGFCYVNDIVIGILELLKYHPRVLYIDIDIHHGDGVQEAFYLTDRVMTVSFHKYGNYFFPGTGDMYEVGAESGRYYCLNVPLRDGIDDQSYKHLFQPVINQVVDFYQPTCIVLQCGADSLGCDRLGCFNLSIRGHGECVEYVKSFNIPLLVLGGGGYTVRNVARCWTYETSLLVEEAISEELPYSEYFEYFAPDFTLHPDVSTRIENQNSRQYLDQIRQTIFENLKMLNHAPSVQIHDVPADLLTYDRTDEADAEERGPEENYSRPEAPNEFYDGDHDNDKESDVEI
The target of data set [3] is T3, Histone deacetylase 2 (Homo sapiens, UniProt Q92769). Kind of data set: Inhibition of HDAC2 (unknown origin) using (FAM)-labeled acetylated peptide as substrate measured after 17 hrs by fluorescence assay.
T3 sequence (Q92769 whole entry): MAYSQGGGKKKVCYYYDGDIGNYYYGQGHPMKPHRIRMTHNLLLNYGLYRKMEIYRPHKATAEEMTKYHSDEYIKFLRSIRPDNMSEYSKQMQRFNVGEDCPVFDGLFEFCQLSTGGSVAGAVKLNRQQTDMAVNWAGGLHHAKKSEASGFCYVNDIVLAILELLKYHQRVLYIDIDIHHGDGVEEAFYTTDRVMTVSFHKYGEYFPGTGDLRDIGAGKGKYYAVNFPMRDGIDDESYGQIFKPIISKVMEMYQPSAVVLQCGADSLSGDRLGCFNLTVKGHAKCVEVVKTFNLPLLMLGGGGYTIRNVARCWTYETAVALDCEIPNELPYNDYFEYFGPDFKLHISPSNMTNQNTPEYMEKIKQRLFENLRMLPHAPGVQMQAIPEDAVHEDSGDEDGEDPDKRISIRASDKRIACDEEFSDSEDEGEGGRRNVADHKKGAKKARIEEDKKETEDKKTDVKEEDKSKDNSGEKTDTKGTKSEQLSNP
The target of data set [4] is T4, Histone deacetylase 8 (Homo sapiens, UniProt Q9BY41).
T4 sequence (Q9BY41 whole entry): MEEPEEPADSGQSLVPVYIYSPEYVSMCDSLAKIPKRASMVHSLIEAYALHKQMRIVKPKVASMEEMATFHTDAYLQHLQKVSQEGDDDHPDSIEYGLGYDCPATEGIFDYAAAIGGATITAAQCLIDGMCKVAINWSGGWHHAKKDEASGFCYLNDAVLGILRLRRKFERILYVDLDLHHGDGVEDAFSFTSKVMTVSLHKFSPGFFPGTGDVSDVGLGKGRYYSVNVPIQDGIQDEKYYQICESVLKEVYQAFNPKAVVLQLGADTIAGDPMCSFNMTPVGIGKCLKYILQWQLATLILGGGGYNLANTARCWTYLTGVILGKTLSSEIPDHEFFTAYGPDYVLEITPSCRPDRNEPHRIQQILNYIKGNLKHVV
Nature of the data set: Inhibition of HDAC8 (unknown origin) using (FAM)-labeled acetylated peptide as substrate measured after 17 hrs by fluorescence assay.

In data set [5] the target is T5, Protein deacetylase HDAC6 (Homo sapiens, UniProt Q9UBN7).
T5 sequence (Q9UBN7 whole entry): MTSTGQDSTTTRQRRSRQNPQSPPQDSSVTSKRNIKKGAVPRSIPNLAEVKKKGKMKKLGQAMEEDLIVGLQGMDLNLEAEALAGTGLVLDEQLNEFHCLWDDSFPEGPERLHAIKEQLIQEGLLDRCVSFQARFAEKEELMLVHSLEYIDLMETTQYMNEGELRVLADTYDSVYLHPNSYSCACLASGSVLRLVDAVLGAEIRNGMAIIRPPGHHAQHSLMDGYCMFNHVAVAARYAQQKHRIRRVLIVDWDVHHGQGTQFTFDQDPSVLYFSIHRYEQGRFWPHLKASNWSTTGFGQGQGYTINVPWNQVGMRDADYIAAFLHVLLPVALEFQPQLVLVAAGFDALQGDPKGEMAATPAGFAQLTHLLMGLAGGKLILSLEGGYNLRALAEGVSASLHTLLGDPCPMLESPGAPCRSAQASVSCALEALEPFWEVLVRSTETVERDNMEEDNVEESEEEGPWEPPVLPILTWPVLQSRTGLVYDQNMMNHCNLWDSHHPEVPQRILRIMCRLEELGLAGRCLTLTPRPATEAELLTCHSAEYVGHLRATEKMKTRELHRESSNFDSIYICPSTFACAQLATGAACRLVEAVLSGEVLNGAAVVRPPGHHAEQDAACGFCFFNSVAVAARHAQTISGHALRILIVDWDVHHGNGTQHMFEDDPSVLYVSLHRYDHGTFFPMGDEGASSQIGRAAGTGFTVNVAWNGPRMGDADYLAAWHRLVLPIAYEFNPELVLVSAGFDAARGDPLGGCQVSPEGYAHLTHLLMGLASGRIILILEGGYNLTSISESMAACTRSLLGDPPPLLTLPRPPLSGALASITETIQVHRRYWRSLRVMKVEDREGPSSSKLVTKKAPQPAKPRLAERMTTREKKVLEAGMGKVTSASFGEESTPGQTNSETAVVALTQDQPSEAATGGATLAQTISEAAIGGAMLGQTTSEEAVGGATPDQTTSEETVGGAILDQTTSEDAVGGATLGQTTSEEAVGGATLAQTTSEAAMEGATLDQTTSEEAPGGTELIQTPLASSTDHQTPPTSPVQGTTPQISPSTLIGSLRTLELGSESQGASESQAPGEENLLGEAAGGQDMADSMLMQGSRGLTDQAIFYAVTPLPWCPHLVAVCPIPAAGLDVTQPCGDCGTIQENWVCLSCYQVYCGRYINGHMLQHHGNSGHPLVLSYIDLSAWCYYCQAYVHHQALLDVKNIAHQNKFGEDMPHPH
Nature of the data set: Inhibition of HDAC6 (unknown origin) using (FAM)-labeled acetylated peptide as substrate measured after 17 hrs by fluorescence assay.

Data set [6] addresses Histone deacetylase 3/NCoR1 (Homo sapiens, UniProt O15379). Kind of data set: Inhibition of human recombinant HDAC3/GST-tagged NCOR1 DAD (397 to 503 residues) expressed in baculovirus expression system by fluorescence assay.
In data set [7] the target is T6, Histone deacetylase 7 (Homo sapiens, UniProt Q8WUI4).
T6 sequence (Q8WUI4 whole entry): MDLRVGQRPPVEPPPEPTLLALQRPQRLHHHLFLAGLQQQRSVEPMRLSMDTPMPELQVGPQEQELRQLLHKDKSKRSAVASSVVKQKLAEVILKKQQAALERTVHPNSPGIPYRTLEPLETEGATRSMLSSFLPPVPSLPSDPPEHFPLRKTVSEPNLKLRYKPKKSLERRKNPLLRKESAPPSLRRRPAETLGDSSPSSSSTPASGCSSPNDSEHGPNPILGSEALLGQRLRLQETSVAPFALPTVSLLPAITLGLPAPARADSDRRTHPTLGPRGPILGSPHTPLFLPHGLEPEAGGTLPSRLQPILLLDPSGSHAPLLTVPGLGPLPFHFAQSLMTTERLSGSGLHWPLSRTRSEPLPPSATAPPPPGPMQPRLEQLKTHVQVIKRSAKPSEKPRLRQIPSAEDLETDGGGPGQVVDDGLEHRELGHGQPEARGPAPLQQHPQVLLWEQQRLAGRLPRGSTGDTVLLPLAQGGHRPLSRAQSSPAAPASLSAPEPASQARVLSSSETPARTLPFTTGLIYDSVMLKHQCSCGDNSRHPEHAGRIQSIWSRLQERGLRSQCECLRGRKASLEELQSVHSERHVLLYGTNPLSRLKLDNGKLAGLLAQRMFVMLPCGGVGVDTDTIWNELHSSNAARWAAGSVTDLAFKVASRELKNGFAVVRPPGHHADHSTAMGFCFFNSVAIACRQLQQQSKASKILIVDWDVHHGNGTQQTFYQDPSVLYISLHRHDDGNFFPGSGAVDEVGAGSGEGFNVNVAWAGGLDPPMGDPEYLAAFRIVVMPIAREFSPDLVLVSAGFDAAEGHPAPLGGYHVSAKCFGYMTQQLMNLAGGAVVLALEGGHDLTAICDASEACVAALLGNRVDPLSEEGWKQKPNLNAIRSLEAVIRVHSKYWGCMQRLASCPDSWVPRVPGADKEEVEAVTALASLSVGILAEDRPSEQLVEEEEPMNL
Kind of data set: Inhibition of recombinant human HDAC7 using fluorescently-labeled acetylated histone peptide as substrate by microfluidic mobility shift assay.

Data set [8] addresses T7, Histone deacetylase 4 (Homo sapiens, UniProt P56524). Nature of the data set: Inhibition of recombinant human HDAC4 using fluorescently-labeled acetylated histone peptide as substrate by microfluidic mobility shift assay.
Data set [9] addresses T2, Histone deacetylase 1. Nature of the data set: Inhibition of recombinant human HDAC1 using fluorescently-labeled acetylated histone peptide as substrate by microfluidic mobility shift assay.
The target of data set [10] is T4, Histone deacetylase 8. Nature of the data set: Inhibition of recombinant human HDAC8 using fluorescently-labeled acetylated histone peptide as substrate by microfluidic mobility shift assay.
The target in data set [11] is T5, Protein deacetylase HDAC6. Nature of the data set: Inhibition of recombinant human HDAC6 using fluorescently-labeled acetylated histone peptide as substrate by microfluidic mobility shift assay.
In data set [12] the target is T3, Histone deacetylase 2. Nature of the data set: Inhibition of recombinant human HDAC2 using fluorescently-labeled acetylated histone peptide as substrate by microfluidic mobility shift assay.
In data set [13] the target is T6, Histone deacetylase 7. Nature of the data set: Inhibition of HDAC7 (unknown origin).
For data set [14], the target named is T7, Histone deacetylase 4. Kind of data set: Inhibition of HDAC4 (unknown origin).
Another data set has as its target Histone deacetylase 5 (Homo sapiens, UniProt Q9UQL6). Nature of the data set: Inhibition of HDAC5 (unknown origin).
A short description of data set [15]: Dissociation constant, pKa of the compound. The data set is classed as physicochemical.
Data set [16] concerns the target T5, Protein deacetylase HDAC6. Kind of data set: Inhibition of recombinant human full length N-terminal GST-tagged HDAC6 expressed in Sf9 insect cells using (S)-6-acetamido-2-(2-((S)-2-acetamido-4-methylpentanamido)acetamido)-N-(4-methyl-2-oxo-2H-chromen-7-yl)hexanamide as substrate by fluorescence assay.

T7 sequence (P56524 whole entry): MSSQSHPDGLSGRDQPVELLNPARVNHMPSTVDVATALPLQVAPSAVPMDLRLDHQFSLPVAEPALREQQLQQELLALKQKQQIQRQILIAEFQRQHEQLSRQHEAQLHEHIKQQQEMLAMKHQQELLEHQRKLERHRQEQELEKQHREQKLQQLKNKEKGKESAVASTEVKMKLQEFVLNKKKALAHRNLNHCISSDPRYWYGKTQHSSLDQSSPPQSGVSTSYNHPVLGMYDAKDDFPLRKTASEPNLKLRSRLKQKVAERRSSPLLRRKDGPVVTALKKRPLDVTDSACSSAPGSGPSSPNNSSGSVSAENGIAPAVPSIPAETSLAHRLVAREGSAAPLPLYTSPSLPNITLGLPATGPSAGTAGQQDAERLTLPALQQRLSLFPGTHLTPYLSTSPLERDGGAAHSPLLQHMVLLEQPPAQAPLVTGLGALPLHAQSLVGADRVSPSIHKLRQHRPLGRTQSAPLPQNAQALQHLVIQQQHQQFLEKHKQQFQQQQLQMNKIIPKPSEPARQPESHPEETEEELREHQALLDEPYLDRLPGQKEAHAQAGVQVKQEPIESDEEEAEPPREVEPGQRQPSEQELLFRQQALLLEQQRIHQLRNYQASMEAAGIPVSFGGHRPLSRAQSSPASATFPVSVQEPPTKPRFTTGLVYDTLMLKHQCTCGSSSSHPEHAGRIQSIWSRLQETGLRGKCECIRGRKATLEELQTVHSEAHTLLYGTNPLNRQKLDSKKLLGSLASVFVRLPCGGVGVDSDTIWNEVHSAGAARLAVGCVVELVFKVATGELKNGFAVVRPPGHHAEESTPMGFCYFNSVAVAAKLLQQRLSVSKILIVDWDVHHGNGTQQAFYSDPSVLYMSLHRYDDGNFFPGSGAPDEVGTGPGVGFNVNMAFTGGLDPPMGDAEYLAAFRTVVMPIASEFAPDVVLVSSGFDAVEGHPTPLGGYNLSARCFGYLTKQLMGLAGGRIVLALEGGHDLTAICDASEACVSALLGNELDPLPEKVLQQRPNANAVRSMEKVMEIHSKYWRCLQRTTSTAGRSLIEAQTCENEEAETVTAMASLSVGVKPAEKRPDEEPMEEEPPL
Sequence of Histone deacetylase 3/NCoR1 (O15379 whole entry, the tested form may be a part): as the sequence (O15379 whole entry) above
Sequence of Histone deacetylase 3/NCoR1 (O75376 whole entry, further chain, the tested form may be a part): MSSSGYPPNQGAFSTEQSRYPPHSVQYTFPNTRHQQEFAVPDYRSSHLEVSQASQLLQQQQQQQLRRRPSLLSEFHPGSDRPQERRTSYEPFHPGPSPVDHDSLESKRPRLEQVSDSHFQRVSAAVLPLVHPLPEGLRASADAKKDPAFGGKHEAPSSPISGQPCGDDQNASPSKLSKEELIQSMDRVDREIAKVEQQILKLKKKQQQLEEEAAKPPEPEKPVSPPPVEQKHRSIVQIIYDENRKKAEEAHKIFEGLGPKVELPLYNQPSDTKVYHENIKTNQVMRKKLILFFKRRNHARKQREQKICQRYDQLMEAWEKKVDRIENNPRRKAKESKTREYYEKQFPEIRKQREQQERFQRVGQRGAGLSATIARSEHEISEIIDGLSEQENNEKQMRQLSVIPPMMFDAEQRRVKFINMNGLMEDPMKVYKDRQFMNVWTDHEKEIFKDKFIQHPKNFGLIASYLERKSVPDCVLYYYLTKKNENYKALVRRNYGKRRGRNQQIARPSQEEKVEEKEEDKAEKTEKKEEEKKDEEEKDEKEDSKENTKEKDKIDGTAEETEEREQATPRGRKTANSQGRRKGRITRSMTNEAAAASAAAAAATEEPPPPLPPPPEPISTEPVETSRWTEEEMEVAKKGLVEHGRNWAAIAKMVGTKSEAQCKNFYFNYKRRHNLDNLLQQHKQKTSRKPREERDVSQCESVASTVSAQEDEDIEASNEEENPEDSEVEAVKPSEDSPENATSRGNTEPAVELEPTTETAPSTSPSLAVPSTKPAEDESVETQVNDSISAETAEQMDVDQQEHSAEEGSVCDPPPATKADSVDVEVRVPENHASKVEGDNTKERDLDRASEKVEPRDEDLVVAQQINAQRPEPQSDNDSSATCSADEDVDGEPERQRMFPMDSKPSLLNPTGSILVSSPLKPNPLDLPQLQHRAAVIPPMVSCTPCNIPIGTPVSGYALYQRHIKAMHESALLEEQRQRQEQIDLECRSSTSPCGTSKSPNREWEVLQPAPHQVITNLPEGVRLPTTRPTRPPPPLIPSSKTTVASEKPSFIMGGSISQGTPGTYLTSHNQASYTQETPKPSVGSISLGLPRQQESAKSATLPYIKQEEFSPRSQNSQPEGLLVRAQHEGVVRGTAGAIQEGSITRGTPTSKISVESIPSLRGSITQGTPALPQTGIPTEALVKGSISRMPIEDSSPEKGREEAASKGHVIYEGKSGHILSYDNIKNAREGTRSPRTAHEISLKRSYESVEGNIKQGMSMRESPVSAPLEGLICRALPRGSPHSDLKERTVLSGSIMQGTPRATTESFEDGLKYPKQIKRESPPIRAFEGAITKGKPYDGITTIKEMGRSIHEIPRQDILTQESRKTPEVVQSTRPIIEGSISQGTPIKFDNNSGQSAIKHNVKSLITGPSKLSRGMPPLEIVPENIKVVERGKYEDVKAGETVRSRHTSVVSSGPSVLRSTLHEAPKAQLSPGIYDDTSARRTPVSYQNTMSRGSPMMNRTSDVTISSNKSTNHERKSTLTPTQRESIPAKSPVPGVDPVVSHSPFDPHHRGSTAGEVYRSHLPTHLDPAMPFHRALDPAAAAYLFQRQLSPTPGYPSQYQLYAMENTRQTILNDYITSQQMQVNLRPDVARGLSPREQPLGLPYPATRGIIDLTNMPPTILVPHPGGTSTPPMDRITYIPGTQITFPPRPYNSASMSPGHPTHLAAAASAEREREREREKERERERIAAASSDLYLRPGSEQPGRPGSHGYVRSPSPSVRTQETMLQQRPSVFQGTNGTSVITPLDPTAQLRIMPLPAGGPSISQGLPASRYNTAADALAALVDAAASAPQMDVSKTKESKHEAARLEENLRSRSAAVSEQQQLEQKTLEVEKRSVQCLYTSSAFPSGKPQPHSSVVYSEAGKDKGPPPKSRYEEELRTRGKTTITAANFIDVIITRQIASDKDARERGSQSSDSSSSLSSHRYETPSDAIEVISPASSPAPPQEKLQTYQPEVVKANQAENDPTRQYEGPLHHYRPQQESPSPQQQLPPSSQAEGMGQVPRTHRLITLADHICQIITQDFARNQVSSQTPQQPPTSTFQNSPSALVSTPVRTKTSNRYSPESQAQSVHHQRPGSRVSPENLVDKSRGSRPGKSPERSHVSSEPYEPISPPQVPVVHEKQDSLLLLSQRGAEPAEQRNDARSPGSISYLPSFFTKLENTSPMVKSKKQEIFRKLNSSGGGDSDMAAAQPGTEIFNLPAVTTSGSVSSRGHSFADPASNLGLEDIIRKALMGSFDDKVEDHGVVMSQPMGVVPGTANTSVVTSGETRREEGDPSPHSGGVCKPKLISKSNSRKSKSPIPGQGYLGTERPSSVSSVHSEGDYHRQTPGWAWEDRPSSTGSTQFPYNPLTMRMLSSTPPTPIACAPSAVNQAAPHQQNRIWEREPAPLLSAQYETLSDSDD

For the compound `CCOC(=O)Nc1cccc(-c2csc(NC(=O)CCCCCC(=O)Nc3ccccc3N)n2)c1`, the concentration for half-maximal inhibition (IC50) in data set [1] is more than 30000 nM; at Histone deacetylase 1 [2], 24800 nM; at Histone deacetylase 3, 60 nM; against Histone deacetylase 2 [3] it was 880 nM; on Histone deacetylase 8 [4], more than 30000 nM; in data set [5], more than 30000 nM.

`Nc1ccccc1NC(=O)c1ccc(-c2cn(CCc3ccsc3)nn2)cc1`: the half-inhibitory concentration (IC50) in [6] was found to be 240 nM.

Turning to `CC(C)(C)OC(=O)Nc1cccc(-c2csc(NC(=O)CCCCCC(=O)NO)n2)c1`, the IC50 was 5.7 nM in [1]; 4.2 nM against Histone deacetylase 1 [2]; 1.7 nM at Histone deacetylase 3; 21 nM against Histone deacetylase 2 [3]; 2580 nM against Histone deacetylase 8 [4]; less than 0.17 nM in [5].

Turning to `CCOC(=O)Nc1cccc(-c2csc(NC(=O)CCCCCC(=O)NO)n2)c1`, the half-maximal inhibitory concentration (IC50) was 2.1 nM in [1]; 2.5 nM on Histone deacetylase 1 [2]; 1.3 nM against Histone deacetylase 3; 24.5 nM against Histone deacetylase 2 [3]; 787 nM on Histone deacetylase 8 [4]; 0.79 nM in [5].

For `CC(=O)Nc1cccc(-c2csc(NC(=O)CCCCCC(=O)Nc3ccccc3N)n2)c1`, the 50% inhibitory concentration (IC50) in data set [1] is 3000 nM; against Histone deacetylase 1 [2], 3200 nM; at Histone deacetylase 3, 30 nM; at Histone deacetylase 2 [3], 200 nM; at Histone deacetylase 8 [4], more than 30000 nM; in [5], 11200 nM.

`C=C1CN(Cc2ccc(C(=O)Nc3ccccc3N)cc2)C(=O)c2ccccc21`: the IC50 is 4100 nM on Histone deacetylase 7 [7]; 5000 nM at Histone deacetylase 4 [8]; 4800 nM on Histone deacetylase 1 [9]; more than 10000 nM at Histone deacetylase 8 [10]; more than 10000 nM in data set [11]; 30 nM on Histone deacetylase 2 [12].

`Nc1ccccc1NC(=O)CCCCCC(=O)Nc1ccccc1`: the half-maximal inhibitory concentration (IC50) result on Histone deacetylase 7 [13], against Histone deacetylase 4 [14] and at Histone deacetylase 5 was “Not Active” each time.

Compound `CC(=O)Nc1ccc(C(=O)Nc2ccccc2N)cc1` [TACEDINALINE] came in with a pKa in data set [15] of 3.33.

Take `Nc1ccccc1NC(=O)c1cnccn1`: the IC50 in data set [16] was more than 20000 nM.

As for `CC(=O)Nc1ccc(C(=O)Nc2ccc(F)cc2N)cc1`, the pKa in [15] is 2.33.

Turning to `CC(C)(C)OC(=O)Nc1cccc(-c2csc(NC(=O)CCCCCC(=O)Nc3ccccc3N)n2)c1`, the half-inhibitory concentration (IC50) was 5300 nM in data set [1]; 4200 nM against Histone deacetylase 1 [2]; 160 nM against Histone deacetylase 3; 1100 nM against Histone deacetylase 2 [3]; more than 30000 nM at Histone deacetylase 8 [4]; 1500 nM in data set [5].

Consider `Nc1cccc(-c2csc(NC(=O)CCCCCC(=O)Nc3ccccc3N)n2)c1`, for which the half-inhibitory concentration (IC50) in [1] was 2910 nM; at Histone deacetylase 1 [2], 2490 nM; against Histone deacetylase 3, 60.3 nM; against Histone deacetylase 2 [3] it was 147 nM; on Histone deacetylase 8 [4] it was more than 30000 nM; in data set [5], more than 30000 nM.

As to `Nc1cccc(-c2csc(NC(=O)CCCCCC(=O)NO)n2)c1`, the half-inhibitory concentration (IC50) amounted to 3.7 nM in data set [1]; 3.8 nM against Histone deacetylase 1 [2]; 2.1 nM on Histone deacetylase 3; 26.5 nM at Histone deacetylase 2 [3]; 1950 nM at Histone deacetylase 8 [4]; 3.3 nM in data set [5].

Usually IC50 stands for the concentration that gives 50% inhibition. Broadly, the pKa is the negative logarithm of the acid dissociation constant. A lower pKa goes with a group that gives up its proton readily.
